From publication PMC11460631, “Inhibition of transient receptor potential vanilloid 3 channels by antimalarial hydroxychloroquine alleviates TRPV3-dependent dermatitis” (The Journal of Biological Chemistry, 2024)

Assays:
TRPV3 L591A mutant = biological target: T1, TRPV3 L591A mutant (Homo sapiens, UniProt Q8NET8, L591A); assay: Whole-cell recording of TRPV3 L591A mutant; assay type: cell-based
T1 construct: YFP or GFP; expressed in transfected cells; host or cells: HEK293T
T1 sequence (Q8NET8 1-790 L591A): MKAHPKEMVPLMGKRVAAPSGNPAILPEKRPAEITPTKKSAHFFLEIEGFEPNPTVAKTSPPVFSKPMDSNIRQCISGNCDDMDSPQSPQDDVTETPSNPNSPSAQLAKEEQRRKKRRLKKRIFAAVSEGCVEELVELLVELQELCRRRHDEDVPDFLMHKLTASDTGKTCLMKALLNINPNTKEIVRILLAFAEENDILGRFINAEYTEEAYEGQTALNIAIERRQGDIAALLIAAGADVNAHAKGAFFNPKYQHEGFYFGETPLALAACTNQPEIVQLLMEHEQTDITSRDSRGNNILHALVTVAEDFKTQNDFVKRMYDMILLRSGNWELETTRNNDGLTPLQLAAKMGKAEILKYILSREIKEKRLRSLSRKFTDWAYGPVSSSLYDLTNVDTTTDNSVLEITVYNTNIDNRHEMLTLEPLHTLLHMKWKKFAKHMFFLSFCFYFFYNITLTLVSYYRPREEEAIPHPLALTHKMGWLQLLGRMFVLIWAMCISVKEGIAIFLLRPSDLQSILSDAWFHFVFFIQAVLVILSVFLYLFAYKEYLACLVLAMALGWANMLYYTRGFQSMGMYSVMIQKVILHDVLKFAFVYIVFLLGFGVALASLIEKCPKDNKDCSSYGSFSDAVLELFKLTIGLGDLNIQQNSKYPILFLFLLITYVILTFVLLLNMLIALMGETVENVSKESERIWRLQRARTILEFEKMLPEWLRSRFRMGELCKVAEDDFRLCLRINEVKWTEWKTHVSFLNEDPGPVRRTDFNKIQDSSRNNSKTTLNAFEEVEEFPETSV
Excerpt: As we mentioned above, HCQ may act as a pore blocker of TRPV3. To probe the binding configuration of HCQ to TRPV3, we carried out molecular docking using Rosetta suite (https://rosettacommons.org) ([21]) and validated the docking models with point mutations in TRPV3 (Fig. 4A). […] Furthermore, when we introduced L670A to L591A mutant, we also observed a left shift on the concentration–response curve on this double mutant as compared to L591A mutant (Fig. 4H).
Figure 4 Residues of the pore domain are critical for HCQ inhibition on TRPV3.A, left panel, docking model of HCQ to the pore domain of TRPV3 structure (6uw4). Right panels, top view and side view of the HCQ-binding pocket. B-J, representative whole-cell recording of TRPV3 and mutants in response to 1 mM 2-APB, the mixture of 1 mM 2-APB and concentration gradients of HCQ with the holding potential of ± 80 mV. K, concentration–response curves of HCQ in WT TRPV3 and mutants (n = 3–5 cells). L, quantification of the inhibitory ratio of HCQ (100 μM) on WT, L591A, and N671Q. […]
All data from whole-cell recordings were analyzed in Igor Pro (WaveMetrics). IC50 values were determined by fitting the Hill equation to concentration-response relationships. […]

C57BL/6J male mice = assay: Carvacrol-induced AD-like mouse model: skin appearance scores and H&E epidermal thickness; assay type: in vivo
Protocol: We therefore generated a carvacrol-induced AD mouse model to test the effect of HCQ.
To investigate the effect of HCQ on carvacrol-induced dermatitis in animals, C57BL/6J male mice (aged 6 weeks) were obtained from the Animal Experimental Center of Hangzhou Medical College (Hangzhou, Zhejiang Province). Mice were housed and maintained in an environment with a 12-h light/dark cycle and a controlled temperature of 22.0 ± 2.0 °C. Food and water were accessible ad libitum. All the animal procedures were approved by the Institutional Animal Care & Use Committee of Zhejiang Center of Laboratory Animals (ZJCLA).
To generate an AD-like mice model, 2% carvacrol (dissolved in 30% ethanol solution) was topically smeared onto the mice dorsum 1 day after hair removal with a depilatory cream (Vetin Depilatory Cream). Mice received a topical administration of an equal volume (200 μl) of 2% carvacrol or in the presence of 2 mg/ml HCQ. […] After the application of carvacrol for 5 days, the external appearance of mice was photographed and then sampled. The external appearance was graded based on three aspects: thickness, erythema/bleeding, and dryness/desquamation, with severity assessed on a score of 0 to 4. The degree of thickness was measured by the thickness of the skin in H&E staining. Skin tissues were either fixed in 4% paraformaldehyde or placed in PBS buffer containing 1% protease inhibitor, facilitating subsequent steps of paraffin embedding or ELISA experiments.
Mice were sacrificed 24 h after the last dose of treatment. Mouse dorsal skin was removed with scissors and forceps before being fixed with 4% paraformaldehyde. Paraffin-embedded tissues were sectioned and stained with H&E. Pictures of stained sections were acquired with a Nikon Eclipse Ti-S microscope with a charge-coupled device camera (DS-Ri2, Nikon).

`CCN(CCO)CCCC(C)Nc1ccnc2cc(Cl)ccc12` (centres unmarked) [HCQ, hydroxychloroquine] was tested, and the inhibition at 100 µM (TRPV3 L591A mutant; 100 μM HCQ) was 28.4%, the IC50 (TRPV3 L591A mutant; 1 mM 2-APB, ± 80 mV) was 203 ± 10.8 µM and the dry desquamation score (C57BL/6J male mice; score of 0 to 4, topical, 5 days, 2% carvacrol alone or with HCQ 2 mg/ml) was 1.50 ± 0.22. The erythema score (C57BL/6J male mice; score of 0 to 4, topical, 5 days, 2% carvacrol alone or with HCQ 2 mg/ml or DXM 1 mg/ml) was 1.67 ± 0.33 and the “epidermal thickness (H&E staining)” value (C57BL/6J male mice; topical with 2% carvacrol, once a day for 5 days, HCQ 2 mg/ml, DXM 1 mg/ml, 200 μl) was 51.49 ± 3.01 μm.
